Where “and” joins values, the source holds several entries; their conditions need not be identical. Identical values can stand only once.
Experiments:
[1] = target: T1, recombinant CYP2C8 (Homo sapiens, UniProt P10632); assay: Intrinsic clearance using recombinant CYPs: CYP2C8; assay type: in vitro ADME; details: 1 μM
T1 construct: purchased Corning Life Sciences (Woburn, MA, USA)
T1 sequence (P10632 1-490): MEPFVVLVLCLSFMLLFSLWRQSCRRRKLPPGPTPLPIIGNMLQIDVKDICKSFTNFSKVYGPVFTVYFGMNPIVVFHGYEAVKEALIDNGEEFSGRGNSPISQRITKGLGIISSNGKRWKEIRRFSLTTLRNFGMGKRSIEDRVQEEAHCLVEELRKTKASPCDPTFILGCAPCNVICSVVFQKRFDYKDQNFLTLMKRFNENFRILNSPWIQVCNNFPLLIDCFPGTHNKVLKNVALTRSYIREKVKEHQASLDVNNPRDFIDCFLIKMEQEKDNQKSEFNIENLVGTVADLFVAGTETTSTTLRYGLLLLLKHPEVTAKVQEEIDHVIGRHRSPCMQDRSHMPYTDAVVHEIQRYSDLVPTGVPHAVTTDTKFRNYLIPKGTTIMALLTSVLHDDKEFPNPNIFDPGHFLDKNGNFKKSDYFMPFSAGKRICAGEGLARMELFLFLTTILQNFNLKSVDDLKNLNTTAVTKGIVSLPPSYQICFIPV
Description: The elimination profiles of tegoprazan and M1 were assessed using rCYPs. All the assay procedures were performed according to the manufacturer’s instructions. Master mix (1.399 mL), containing the NADPH-generating system, 3.3 mM of glucose 6-phosphate, PBS buffer, deionized water, and each rCYP (25 pmol/μL of CYP2C8, 2C19, and 2E1 and 50 pmol/μL of CYP3A4, 2C9, and 2D6), was added to a microtube and pre-incubated at 37 °C for 5 min. Next, 1 μM tegoprazan and M1 were added and incubated at 37 °C for 0, 5, 10, 20, 30, 45, and 60 min. A total of 100 μL of the sample, incubated for predefined duration, was transferred to a fresh e-tube. Next, 200 μL of acetonitrile containing tegoprazan-d6 (0.5 μM) was added, vortexed for 5 min, and centrifuged at 16,200× g and 4 °C for 10 min. The concentrations of the remaining tegoprazan and M1 were determined by LC–MS/MS. All experiments were performed in duplicate. CLint,rCYP levels were assessed using the results of the disappearance test. The terminal slope of the linear regression was used to determine the CLint for tegoprazan. The CLint resulting from rCYPs was calculated using Equation (3):(3) CLint,rCYP(μL/min/pmol CYP)=0.693/t1/2×1400/concentration of CYP […]

[2] = Clinical PK of single and repeated oral doses of tegoprazan in healthy adult males (literature); assay type: in vivo, human; details: 100 mg once daily; from values of ref 15
[3] = parameters: method as in PMID 31437865; details: cited from earlier work
[4] = weak base; cited from earlier work
[5] = tested on: CYP3A4; parameters: method as in ref 17, 18 = [17]; 17. Tegoprazan (K-CAB) Available online: https://pdfslide.net/reader/f/tegoprazan-k-cab-2019-02-08-tegoprazan-metabolic-pathway-75-by-cyp3a4 (accessed on 10 December 2020) || [18]; PMID 34575565; doi:10.3390/pharmaceutics13091489; 18. Yoon D.Y. Lee S. Jang I.-J. Kim M. Lee H. Kim S. Kim B. Song G.S. Rhee S.-J. Prediction of Drug–Drug Interaction Potential of Tegoprazan Using Physiologically Based Pharmacokinetic Modeling and Si; details: cited from earlier work

SMILES: Cc1nc2cc(C(=O)N(C)C)cc(O[C@H]3CCOc4cc(F)cc(F)c43)c2[nH]1 [tegoprazan]
- CLint, CYP2C8 ([1]; experimental data): 0.06 µL/min/pmol and 0.060 µL/min/pmol
- Slope (disappearance) ([1]; rCYP2C8): 0.002
- decrease of observed Cmax at Day 7 compared with Day 1 [2]: approximately 40.2%
- observed Cmax, Day 7 ([3]; 100 mg once daily for 7 days): 845.2 ± 40.7 ng/mL
- observed Cmax, Day 1 ([3]; 100 mg once daily): 1413.3 ± 24.7 ng/mL
- pKa [4]: 5.1
- metabolic fraction by CYP3A4 of total hepatic clearance [5]: approximately 75%

— paper PMC9230797, “Integration of a Physiologically Based Pharmacokinetic and Pharmacodynamic Model for Tegoprazan and Its Metabolite: Application for Predicting Food Effect and Intragastric pH Alterations” (Pharmaceutics, 2022)
